Laboratory results reported in US7968577B2 (Bristol-Myers Squibb Company, priority 2006, dated 2011).

Molecular target: T1, human full-length glucocorticoid receptor (Homo sapiens, UniProt P04150)
T1 construct: recombinantly expressed human full-length glucocorticoid receptor; purchased PanVera Co., Madison, Wis; P2816
T1 sequence (P04150 1-777): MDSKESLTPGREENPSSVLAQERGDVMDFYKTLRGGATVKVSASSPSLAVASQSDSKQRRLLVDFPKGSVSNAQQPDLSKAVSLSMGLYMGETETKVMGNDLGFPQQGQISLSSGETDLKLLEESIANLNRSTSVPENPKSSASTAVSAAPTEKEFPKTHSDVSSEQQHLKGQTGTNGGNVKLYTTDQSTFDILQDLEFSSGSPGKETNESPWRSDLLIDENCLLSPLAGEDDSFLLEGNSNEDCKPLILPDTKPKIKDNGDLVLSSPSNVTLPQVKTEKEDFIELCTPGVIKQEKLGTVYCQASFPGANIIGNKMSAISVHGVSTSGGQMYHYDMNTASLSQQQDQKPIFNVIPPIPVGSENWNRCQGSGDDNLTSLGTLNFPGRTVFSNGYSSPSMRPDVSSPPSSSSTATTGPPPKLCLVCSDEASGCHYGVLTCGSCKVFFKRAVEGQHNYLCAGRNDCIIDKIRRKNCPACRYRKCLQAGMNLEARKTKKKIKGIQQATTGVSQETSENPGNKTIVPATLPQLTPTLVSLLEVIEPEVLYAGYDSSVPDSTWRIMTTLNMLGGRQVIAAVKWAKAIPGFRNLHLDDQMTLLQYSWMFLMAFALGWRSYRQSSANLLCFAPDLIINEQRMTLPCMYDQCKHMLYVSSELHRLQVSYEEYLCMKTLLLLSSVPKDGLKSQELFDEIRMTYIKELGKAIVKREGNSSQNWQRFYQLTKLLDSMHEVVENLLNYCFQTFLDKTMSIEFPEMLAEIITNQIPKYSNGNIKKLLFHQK
Test: Glucocorticoid Receptor Binding Assay (II), fluorescence polarization competitor kit (Fluormone GS1)
Conditions: GR Binding Assay (II)
Method: Glucocorticoid Receptor Binding Assay (II)^b
In order to measure the binding of compounds on the glucocorticoid receptor a commercially available kit was used (Glucocorticoid receptor competitor assay kit, PanVera Co., Madison, Wis., P2816). Briefly, a cell lysate containing recombinantly expressed human full-length glucocorticoid receptor was mixed with a fluorescently labeled glucocorticoid (1 nM Fluormone GS1) in the presence or absence of test compound. After one hour at room temperature, the fluorescence polarization (FP) of the samples were measured.

Row | SMILES | Ki
1 | COc1ccc([C@@H](c2ccccc2)C(C)(C)C(=O)Nc2nccs2)cc1Br [Example 286, (3R)-3-(3-bromo-4-(methyloxy)phenyl)-2,2-dimethyl-3-phenyl-N-1,3-thiazol-2-ylpropanamide] | 46.7 nM
2 | COc1ccc([C@@H](c2ccccc2)C(C)(C)C(=O)Nc2nccs2)cc1C#N [Example 296, (3R)-3-(3-Cyano-4-(methyloxy)phenyl)-2,2-dimethyl-3-phenyl-N-1,3-thiazol-2-ylpropanamide] | 45.7 nM
3 | CC(C)(C(=O)Nc1nccs1)C(c1ccccc1)c1ccc(Cl)cc1 (stereo not shown) [Example 306, 3-(4-chlorophenyl)-2,2-dimethyl-3-phenyl-N-1,3-thiazol-2-ylpropanamide] | 26.3 nM
4 | CC(C)(C(=O)Nc1nccs1)C(c1ccccc1)c1ccc(F)cc1 (stereo not shown) [Example 308, 3-(4-fluorophenyl)-2,2-dimethyl-3-phenyl-N-1,3-thiazol-2-ylpropanamide] | 35 nM
5 | CC(C)(C(=O)Nc1nccs1)C(c1ccccc1)c1ccc(F)cc1 (stereo not shown) [Example 309, 3-(4-fluorophenyl)-2,2-dimethyl-3-phenyl-N-1,3-thiazol-2-ylpropanamide] | 76.4 nM
6 | CC(C)(C(=O)Nc1nccs1)C(c1ccccc1)c1ccc(C#N)cc1 (stereo not shown) [Example 310, 3-(4-cyanophenyl)-2,2-dimethyl-3-phenyl-N-1,3-thiazol-2-ylpropanamide] | 26.6 nM
7 | CC(C)(C(=O)Nc1nccs1)C(c1ccccc1)c1cccc(C#N)c1 (stereo not shown) [Example 313, 3-(3-cyanophenyl)-2,2-dimethyl-3-phenyl-N-1,3-thiazol-2-ylpropanamide] | 57.6 nM
8 | CC(C)(C(=O)Nc1nccs1)C(C)(c1ccccc1)c1ccccc1 [Example 316, 2,2-dimethyl-3,3-diphenyl-N-1,3-thiazol-2-ylbutanamide] | 472 nM
9 | CC(C)(C(=O)Nc1nccs1)[C@@H](c1ccccc1)c1cccc(O)c1 [Example 327, 3-(3-hydroxyphenyl)-2,2-dimethyl-3-phenyl-N-1,3-thiazol-2-ylpropanamide] | 90.9 nM
10 | Cc1csc(NC(=O)C(C)(C)[C@H](c2ccccc2)c2ccc(O)cc2)n1 [Example 330, (3R)-3-(4-hydroxyphenyl)-2,2-dimethyl-N-(4-methyl-1,3-thiazol-2-yl)-3-phenylpropanamide] | 169 nM
11 | Cc1cnc(NC(=O)C(C)(C)[C@H](c2ccccc2)c2ccc(O)cc2)s1 [Example 332, (3R)-3-(4-hydroxyphenyl)-2,2-dimethyl-N-(5-methyl-1,3-thiazol-2-yl)-3-phenylpropanamide] | 204 nM
12 | CC(C)(C(=O)NC1CCC1)[C@@H](c1ccccc1)c1ccc(O)cc1 [Example 333, (3S)-N-cyclobutyl-3-(4-hydroxyphenyl)-2,2-dimethyl-3-phenylpropanamide] | 392 nM
13 | CC(C)(C(=O)NC1CCC1)[C@H](c1ccccc1)c1ccc(O)cc1 [Example 334, (3R)-N-cyclobutyl-3-(4-hydroxyphenyl)-2,2-dimethyl-3-phenylpropanamide] | 395 nM
14 | CC(C)(C(=O)NC1CCCC1)[C@H](c1ccccc1)c1ccc(O)cc1 [Example 336, (3R)-N-cyclopentyl-3-(4-hydroxyphenyl)-2,2-dimethyl-3-phenylpropanamide] | 504 nM
15 | CC(C)(C(=O)N1CCOCC1)[C@@H](c1ccccc1)c1ccc(O)cc1 [Example 337, 4-((1S)-2,2-dimethyl-3-(4-morpholinyl)-3-oxo-1-phenylpropyl)phenol] | 2090 nM
16 | CC(C)(C(=O)Nc1ccccn1)[C@@H](c1ccccc1)c1ccc(O)cc1 [Example 341, (3S)-3-(4-hydroxyphenyl)-2,2-dimethyl-3-phenyl-N-2-pyridinylpropanamide] | 175 nM
17 | CC(C)(C(=O)Nc1nncs1)C(c1ccccc1)c1ccc(O)cc1F (stereo not shown) [Example 344, 3-(2-fluoro-4-hydroxyphenyl)-2,2-dimethyl-3-phenyl-N-1,3,4-thiadiazol-2-ylpropanamide] | 43.2 nM
18 | CC(C)(C(=O)Nc1nccs1)[C@H](c1ccccc1)c1ccc(OC(=O)c2ccco2)cc1 [Example 363, 4-((1R)-2,2-dimethyl-3-oxo-1-phenyl-3-(1,3-thiazol-2-ylamino)propyl)phenyl 2-furancarboxylate] | 47 nM
19 | CC(C)(C(=O)Nc1nccs1)[C@H](c1ccccc1)c1ccc(OC(=O)c2ccoc2)cc1 [Example 365, 4-((1R)-2,2-dimethyl-3-oxo-1-phenyl-3-(1,3-thiazol-2-ylamino)propyl)phenyl 3-furancarboxylate] | 31.9 nM
20 | CC(C)(C(=O)Nc1nccs1)[C@H](c1ccccc1)c1ccc(OC(=O)C2CCCO2)cc1 (stereo partly drawn) [Example 367, 4-((1R)-2,2-dimethyl-3-oxo-1-phenyl-3-(1,3-thiazol-2-ylamino)propyl)phenyl tetrahydro-2-furancarboxylate] | 26.9 nM

The next compounds have a lower Ki than those just listed; values first:

Row | Ki | SMILES
21 | 23.2 nM | CC(C)(C(=O)Nc1nccs1)C(c1ccccc1)c1ccc(Br)cc1 (stereo not shown) [Example 317, 3-(4-bromophenyl)-2,2-dimethyl-3-phenyl-N-1,3-thiazol-2-ylpropanamide]
22 | 22.9 nM | CC(C)(C(=O)Nc1nccs1)[C@H](c1ccccc1)c1ccc(O)c(C#N)c1 [Example 358]
23 | 21.7 nM | CC(=O)Oc1ccc([C@@H](c2ccccc2)C(C)(C)C(=O)Nc2nccs2)cc1 [Example 360, 4-((1R)-2,2-Dimethyl-3-oxo-1-phenyl-3-(1,3-thiazol-2-ylamino)propyl)phenyl acetate]
24 | 19.9 nM | CC(C)(C(=O)Nc1nncs1)C(c1ccccc1)c1cccc(Br)c1 (stereo not shown) [Example 312, 3-(3-bromophenyl)-2,2-dimethyl-3-phenyl-N-1,3-thiadiazol-2-ylpropanamide]
25 | 19.2 nM | CC(=O)c1ccc(C(c2ccccc2)C(C)(C)C(=O)Nc2nccs2)cc1 (stereo not shown) [Example 368, 3-(4-Acetylphenyl)-2,2-dimethyl-3-phenyl-N-1,3-thiazol-2-ylpropanamide]
26 | 18.8 nM | Cc1cnc(NC(=O)C(C)(C)[C@@H](c2ccccc2)c2ccc(O)cc2)s1 [Example 331, (3S)-3-(4-hydroxyphenyl)-2,2-dimethyl-N-(5-methyl-1,3-thiazol-2-yl)-3-phenylpropanamide]
27 | 17.8 nM | CC(C)(C(=O)Nc1nccs1)[C@H](c1ccccc1)c1cccc(O)c1 [Example 328, 3-(3-hydroxyphenyl)-2,2-dimethyl-3-phenyl-N-1,3-thiazol-2-ylpropanamide]
28 | 17.5 nM | CC(C)(C(=O)Nc1nccs1)C(c1ccccc1)c1cccc(Br)c1 (stereo not shown) [Example 311, 3-(3-bromophenyl)-2,2-dimethyl-3-phenyl-N-1,3-thiazol-2-ylpropanamide]
29 | 16.8 nM | Cc1csc(NC(=O)C(C)(C)[C@@H](c2ccccc2)c2ccc(O)cc2)n1 [Example 329, (3S)-3-(4-hydroxyphenyl)-2,2-dimethyl-N-(4-methyl-1,3-thiazol-2-yl)-3-phenylpropanamide]
30 | 16 nM | CC(C)(C(=O)Nc1nccs1)C(c1ccccc1)c1ccc(O)c(F)c1 (stereo not shown) [Example 346, 3-(3-fluoro-4-hydroxyphenyl)-2,2-dimethyl-3-phenyl-N-1,3-thiazol-2-ylpropanamide]
31 | 15.5 nM | CC(C)(C(=O)Nc1nccs1)C(c1ccccc1)c1ccc(F)cc1 (stereo not shown) [Example 307, 3-(4-fluorophenyl)-2,2-dimethyl-3-phenyl-N-1,3-thiazol-2-ylpropanamide]
32 | 14.7 nM | COc1ccc([C@H](c2ccccc2)C(C)(C)C(=O)Nc2nncs2)cc1Br [Example 287, (3S)-3-(3-bromo-4-(methyloxy)phenyl)-2,2-dimethyl-3-phenyl-N-1,3,4-thiadiazol-2-ylpropanamide]
33 | 13.2 nM | CC(C)(C(=O)Nc1nccs1)C(c1ccccc1)c1ccc(Br)c(F)c1 (stereo not shown) [Example 314, 3-(4-bromo-3-fluorophenyl)-2,2-dimethyl-3-phenyl-N-1,3-thiazol-2-ylpropanamide]
34 | 12.8 nM | CC(C)(C(=O)Nc1nncs1)C(c1ccccc1)c1ccc(Br)cc1 (stereo not shown) [Example 318, 3-(4-bromophenyl)-2,2-dimethyl-3-phenyl-N-1,3,4-thiadiazol-2-ylpropanamide]
35 | 11.8 nM | CCOC(=O)c1csc(NC(=O)C(C)(C)[C@@H](c2ccccc2)c2ccc(O)cc2)n1 [Example 338, ethyl 2-(((3S)-3-(4-hydroxyphenyl)-2,2-dimethyl-3-phenylpropanoyl)amino)-1,3-thiazole-4-carboxylate]
36 | 10.9 nM | CC(C)(C(=O)Nc1nncs1)C(c1ccccc1)c1ccc(Br)c(F)c1 (stereo not shown) [Example 315, 3-(4-bromo-3-fluorophenyl)-2,2-dimethyl-3-phenyl-N-1,3,4-thiadiazol-2-ylpropanamide]
37 | 8.1 nM | CC(C)(C(=O)Nc1ncns1)[C@@H](c1ccccc1)c1ccc(O)cc1 [Example 342, (3S)-3-(4-hydroxyphenyl)-2,2-dimethyl-3-phenyl-N-1,2,4-thiadiazol-5-ylpropanamide]
